In US20230339890A1, “AMINO ALCOHOL COMPOUNDS AND USES THEREOF” (Kineta, Inc., priority 2020, published 2023):

Molecular target: Recombinant human CYP51A1 (lanosterol-14a-demethylase) (Homo sapiens (Human), UniProt Q16850)
Assay: Inhibition of CYP51A1, fluorescent substrate BOMCC
Assay type: biochemical
Details: recombinant human CYP51A1 coexpressed with CYP reductase in bacterial membranes, 8-point concentration-response, read-out: CYP51 IC50
Description: Method: Recombinant human CYP51A1 (lanosterol-14a-demethylase) enzyme was coexpressed with CYP reductase in bacterial membranes and the fluorescent substrate BOMCC (a nonnatural substrate that causes increases in fluorescence upon CYP51A1-dependent demethylation) was used to obtain 8-point dose concentration-response curves for each compound.

Chain of Recombinant human CYP51A1 (lanosterol-14a-demethylase) (Q16850 whole entry): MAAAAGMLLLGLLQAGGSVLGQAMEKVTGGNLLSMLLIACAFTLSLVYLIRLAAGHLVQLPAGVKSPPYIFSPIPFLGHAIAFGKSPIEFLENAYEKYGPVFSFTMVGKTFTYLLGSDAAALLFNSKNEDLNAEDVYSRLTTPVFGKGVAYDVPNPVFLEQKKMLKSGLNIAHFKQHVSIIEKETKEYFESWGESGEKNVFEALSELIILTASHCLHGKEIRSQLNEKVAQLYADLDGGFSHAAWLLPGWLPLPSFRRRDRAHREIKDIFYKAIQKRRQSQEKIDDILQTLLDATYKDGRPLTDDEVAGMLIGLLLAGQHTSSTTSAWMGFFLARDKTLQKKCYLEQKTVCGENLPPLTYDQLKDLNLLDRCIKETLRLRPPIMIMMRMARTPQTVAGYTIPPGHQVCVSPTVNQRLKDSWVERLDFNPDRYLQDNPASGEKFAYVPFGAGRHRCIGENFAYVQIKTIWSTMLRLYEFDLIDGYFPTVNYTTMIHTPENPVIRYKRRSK

| IC50 [nM] | Structure (SMILES) |
| --- | --- |
| 100 to 1000 | CCCN(CC(O)c1cccnn1)C(=O)Cc1ccc(Cl)c(Cl)c1 (single isomer, unassigned) [compound 35, 2-(3,4-dichlorophenyl)-N-[2-hydroxy-2-pyridazin-3-yl-ethyl]-N-propyl-acetamide] |
| > 1000 | CCCN(CC(O)c1cccnn1)C(=O)Cc1ccc(Cl)c(Cl)c1 (single isomer, unassigned) [compound 36, 2-(3,4-dichlorophenyl)-N-[2-hydroxy-2-pyridazin-3-yl-ethyl]-N-propyl-acetamide] |
| > 1000 | CCCN(CC(O)c1cnccn1)C(=O)C1Cc2cc(Cl)c(Cl)cc2C1 (single isomer, unassigned) [compound 41, 5,6-dichloro-N-(2-hydroxy-2-pyrazin-2-yl-ethyl)-N-propyl-indane-2-carboxamide] |
| ≤ 100 | CCCN(CC(O)c1cnccn1)C(=O)C1Cc2cc(Cl)c(Cl)cc2C1 (single isomer, unassigned) [compound 42, 5,6-dichloro-N-(2-hydroxy-2-pyrazin-2-yl-ethyl)-N-propyl-indane-2-carboxamide] |
| 100 to 1000 | O=C(Cc1ccc(C(F)(F)F)nc1)N(CC(O)c1cccnn1)C1CCC1 (single isomer, unassigned) [compound 61, N-cyclobutyl-N-(2-hydroxy-2-pyridazin-3-yl-ethyl)-2-[6-(trifluoromethyl)-3-pyridyl]acetamide] |
| > 1000 | O=C(Cc1ccc(C(F)(F)F)nc1)N(CC(O)c1cccnn1)C1CCC1 (single isomer, unassigned) [compound 62, N-cyclobutyl-N-(2-hydroxy-2-pyridazin-3-yl-ethyl)-2-[6-(trifluoromethyl)-3-pyridyl]acetamide] |
| > 1000 | CCCN(CC(O)c1cccnn1)C(=O)Cc1ccc(C(F)(F)F)nc1 (single isomer, unassigned) [compound 68, N-[2-hydroxy-2-pyridazin-3-yl-ethyl]-N-propyl-2-[6-(trifluoromethyl)-3-pyridyl]acetamide] |
| ≤ 100 | CCCN(CC(O)c1cccnn1)C(=O)Cc1ccc(C(F)(F)F)nc1 (single isomer, unassigned) [compound 69, N-[2-hydroxy-2-pyridazin-3-yl-ethyl]-N-propyl-2-[6-(trifluoromethyl)-3-pyridyl]acetamide] |
| ≤ 100 | Cc1ccncc1C(O)CN(CC1COC1)C(=O)Cc1ccc(C(F)(F)F)nc1 (single isomer, unassigned) [compound 88, N-[2-hydroxy-2-(4-methyl-3-pyridyl)ethyl] -N-(oxetan-3-ylmethyl)-2-[6-(trifluoromethyl)-3-pyridyl]acetamide] |
| ≤ 100 | CCCN(CC(O)c1cccnc1)C(=O)Cc1ccc(Cl)c(Cl)c1 (centres unmarked) [compound 1, 2-(3,4-dichlorophenyl)-N-[2-hydroxy-2-(3-pyridyl)ethyl]-N-propyl-acetamide] |
| ≤ 100 | CCCN(CC(O)c1cccnc1)C(=O)Cc1ccc2ccccc2c1 (centres unmarked) [compound 2, N-[2-hydroxy-2-(3-pyridyl)ethyl]-2-(2-naphthyl)-N-propyl-acetamide] |
| 100 to 1000 | CCC(=O)N(CCc1ccc2ccccc2c1)CC(O)c1cccnc1 (centres unmarked) [compound 3] |
| 100 to 1000 | CCC(=O)N(CCc1ccc(Cl)c(Cl)c1)CC(O)c1cccnc1 (centres unmarked) [compound 4] |
| > 1000 | CCCN(CC(O)c1cccnc1)C(=O)Cc1ccc(OC)c(OC)c1 (centres unmarked) [compound 5, 2-(3,4-dimethoxyphenyl)-N-[2-hydroxy-2-(3-pyridyl)ethyl]-N-propyl-acetamide] |
| ≤ 100 | CCCN(C[C@H](O)c1cccnc1)C(=O)Cc1ccc(Cl)c(Cl)c1 [compound 6, 2-(3,4-dichlorophenyl)-N-[(2R)-2-hydroxy-2-(3-pyridyl)ethyl]-N-propyl-acetamide] |
| ≤ 100 | CCCN(C[C@@H](O)c1cccnc1)C(=O)Cc1ccc2ccccc2c1 [compound 7, N-[(2S)-2-hydroxy-2-(3-pyridyl)ethyl]-2-(2-naphthyl)-N-propyl-acetamide] |
| ≤ 100 | CCCN(C[C@@H](O)c1cccnc1)C(=O)Cc1ccc(Cl)c(Cl)c1 [compound 8, 2-(3,4-dichlorophenyl)-N-[(2S)-2-hydroxy-2-(3-pyridyl)ethyl]-N-propyl-acetamide] |
| 100 to 1000 | CC1(N(CC(O)c2cccnc2)C(=O)Cc2ccc(Cl)c(Cl)c2)CC1 (centres unmarked) [compound 9, 2-(3,4-dichlorophenyl)-N-[2-hydroxy-2-(3-pyridyl)ethyl]-N-(1-methylcyclopropyl)a cetamide] |
| > 1000 | CCCN(CC(O)c1cccnc1)S(=O)(=O)Cc1ccc(Cl)c(Cl)c1 (centres unmarked) [compound 10, 1-(3,4-dichlorophenyl)-N-[2-hydroxy-2-(3-pyridyl)ethyl]-N-propyl-methanesulfonamide] |
| ≤ 100 | CCCN(C[C@@H](O)c1cccnc1)C(=O)C1Cc2cc(Cl)c(Cl)cc2C1 [compound 11] |

| IC50 [nM] | Structure (SMILES) |
| --- | --- |
| 100 to 1000 | CCCN(C[C@@H](O)c1cccnc1)C(=O)Cc1ccc(OC)c(Cl)c1 [compound 12, 2-(3-chloro-4-methoxy-phenyl)-N-[(2S)-2-hydroxy-2-(3-pyridyl)ethyl]-N-propyl-acetamide] |
| > 1000 | CCCN(CC(O)c1cncnc1)C(=O)Cc1ccc(Cl)c(Cl)c1 (centres unmarked) [compound 13, 2-(3,4-dichlorophenyl)-N-(2-hydroxy-2-pyrimidin-5-yl-ethyl)-N-propyl-acetamide] |
| > 1000 | CCCN(C[C@@H](O)c1cccnc1)C(=O)Cc1ccc(Cl)cn1 [compound 14, 2-(5-chloro-2-pyridyl)-N-[(2S)-2-hydroxy-2-(3-pyridyl)ethyl]-N-propyl-acetamide] |
| > 1000 | CCCN(C[C@@H](O)c1cccnc1)C(=O)Cc1ccc(C)nc1 [compound 15, N-[(2S)-2-hydroxy-2-(3-pyridyl)ethyl]-2-(6-methyl-3-pyridyl)-N-propyl-acetamide] |
| ≤ 100 | CCCN(C[C@@H](O)c1cccnc1)C(=O)Cc1ccc(C)c(Cl)c1 [compound 16, 2-(3-chloro-4-methyl-phenyl)-N-[(2S)-2-hydroxy-2-(3-pyridyl)ethyl]-N-propyl-acetamide] |
| ≤ 100 | CCCN(C[C@@H](O)c1cccnc1)C(=O)Cc1ccc(C(F)(F)F)nc1 [compound 17, N-[(2S)-2-hydroxy-2-(3-pyridyl)ethyl]-N-propyl-2-[6-(trifluoromethyl)-3-pyridyl]acetamide] |
| ≤ 100 | CC(C)N(C[C@@H](O)c1cccnc1)C(=O)Cc1ccc(Cl)c(Cl)c1 [compound 18, 2-(3,4-dichlorophenyl) -N-[(2S)-2-hydroxy-2-(3-pyridyl)ethyl]-N-isopropyl-acetamide] |
| > 1000 | CCCN(CC(O)c1ccnnc1)C(=O)Cc1ccc(Cl)c(Cl)c1 (centres unmarked) [compound 19] |
| 100 to 1000 | CCN(C[C@@H](O)c1cccnc1)C(=O)Cc1ccc(Cl)c(Cl)c1 [compound 20, 2-(3,4-dichlorophenyl) -N-ethyl-N-[(2S)-2-hydroxy-2-(3-pyridyl)ethyl]ac etamide] |
| ≤ 100 | CCCN(C[C@@H](O)c1cccnc1)C(=O)Cc1ccc(OC(F)(F)F)c(Cl)c1 [compound 21, 2-[3-chloro-4-(trifluoromethoxy)phenyl]-N-[(2S)-2-hydroxy-2-(3-pyridyl)ethyl]-N-propyl-acetamide] |
| 100 to 1000 | CCC(=O)N(C[C@@H](O)c1cccnc1)C1Cc2cc(Cl)c(Cl)cc2C1 [compound 22, N-(5,6-dichloroindan-2-yl)-N-[(2S)-2-hydroxy-2-(3-pyridyl)ethyl]propanamide] |
| ≤ 100 | CCC(=O)N(C[C@H](O)c1cccnc1)C1Cc2cc(Cl)c(Cl)cc2C1 [compound 23, N-(5,6-dichloroindan-2-yl)-N-[(2R)-2-hydroxy-2-(3-pyridyl)ethyl]propanamide] |
| 100 to 1000 | CCCN(C[C@@H](O)c1cccnc1)C(=O)Cc1ccc(Cl)c(C#N)c1 [compound 24, 2-(4-chloro-3-cyano-phenyl)-N-[(2S)-2-hydroxy-2-(3-pyridyl)ethyl]-N-propyl-acetamide] |
| 100 to 1000 | O=C(Cc1ccc(Cl)c(Cl)c1)N(CC1COC1)C[C@@H](O)c1cccnc1 [compound 25, 2-(3,4-dichlorophenyl) -N-[(2S)-2-hydroxy-2-(3-pyridyl)ethyl]-N-(oxetan-3-ylmethyl)acetamide] |
| 100 to 1000 | O=C(Cc1ccc(Cl)c(Cl)c1)N(C[C@@H](O)c1cccnc1)C1COC1 [compound 26, 2-(3,4-dichlorophenyl) -N-[(2S)-2-hydroxy-2-(3-pyridyl)ethyl]-N-(oxetan-3-yl)acetamide] |
| ≤ 100 | CC1(CN(C[C@@H](O)c2cccnc2)C(=O)Cc2ccc(Cl)c(Cl)c2)CC1 [compound 27, 2-(3,4-dichlorophenyl) -N-[(2S)-2-hydroxy-2-(3-pyridyl)ethyl]-N-[(1-methylcyclopropyl)methyl]acetamide] |
| > 1000 | COC(=O)N(CCc1ccc(C(F)(F)F)nc1)CC(O)c1cccnc1 (centres unmarked) [compound 28, methyl N-[2-hydroxy-2-(3-pyridyl)ethyl]-N-[2-[6-(trifluoromethyl)-3-pyridyl]ethyl]carbamate] |
| > 1000 | CC(C)N(C[C@@H](O)c1cccnc1)C(=O)Nc1ccc(Cl)c(Cl)c1 [compound 29, 3-(3,4-dichlorophenyl)-1-[(2S)-2-hydroxy-2-(3-pyridyl)ethyl]-1-isopropyl-urea] |
| ≤ 100 | CCCN(CC(O)c1cccnc1)C(=O)Cc1ccc(Cl)cc1F (centres unmarked) [compound 31, 2-(4-chloro-2-fluoro-phenyl)-N-[2-hydroxy-2-(3-pyridyl)ethyl]-N-propyl-acetamide] |

| Structure (SMILES) | IC50 [nM] |
| --- | --- |
| CCCN(CC(O)c1cccnn1)C(=O)Cc1ccc(C#N)c(Cl)c1 (single isomer, unassigned) [compound 53, 2-(3-chloro-4-cyanophenyl)-N-(2-hydroxy-2-pyridazin-3-yl-ethyl)-N-propyl-acetamide] | 100 to 1000 |
| CCCN(CC(O)c1cccnn1)C(=O)Cc1ccc(C#N)c(Cl)c1 (single isomer, unassigned) [compound 54, 2-(3-chloro-4-cyanophenyl)-N-(2-hydroxy-2-pyridazin-3-yl-ethyl)-N-propyl-acetamide] | > 1000 |
